Data published in paper PMC5641445 (Journal of medicinal chemistry, 2017).
Structures can show the parent of a compound that is named as a salt. Values belong to the compound of their own block, whether it stands above or below them.

How the values were obtained:
[1] = biological target: bovine GRK5 (Bos taurus, UniProt P43249); test: GRK5 kinase inhibition; conditions: relative to paroxetine
[2] = system: mouse cardiomyocytes; type: cell-based; conditions: at 0.5 μM or 1 μM
[3] = Metabolic stability in mouse liver microsomes; type: in vitro ADME; conditions: polar carboxamides on the paroxetine template
[4] = biological target: mouse PKA catalytic subunits (Mus musculus, UniProt P05132); test: PKA inhibition, ADP-Glo Kinase Assay
[5] = system: GRK2; conditions: read-out: GRK2 IC50; Takeda compounds; cited from earlier work
[6] = Abbreviated pharmacokinetic study in mice after IP administration
[7] = system: mouse cardiomyocytes; conditions: cited from earlier work
[8] = female, CD-1, mouse, plasma, ip, 10 mg/kg

Sequence of bovine GRK5 (P43249 whole entry): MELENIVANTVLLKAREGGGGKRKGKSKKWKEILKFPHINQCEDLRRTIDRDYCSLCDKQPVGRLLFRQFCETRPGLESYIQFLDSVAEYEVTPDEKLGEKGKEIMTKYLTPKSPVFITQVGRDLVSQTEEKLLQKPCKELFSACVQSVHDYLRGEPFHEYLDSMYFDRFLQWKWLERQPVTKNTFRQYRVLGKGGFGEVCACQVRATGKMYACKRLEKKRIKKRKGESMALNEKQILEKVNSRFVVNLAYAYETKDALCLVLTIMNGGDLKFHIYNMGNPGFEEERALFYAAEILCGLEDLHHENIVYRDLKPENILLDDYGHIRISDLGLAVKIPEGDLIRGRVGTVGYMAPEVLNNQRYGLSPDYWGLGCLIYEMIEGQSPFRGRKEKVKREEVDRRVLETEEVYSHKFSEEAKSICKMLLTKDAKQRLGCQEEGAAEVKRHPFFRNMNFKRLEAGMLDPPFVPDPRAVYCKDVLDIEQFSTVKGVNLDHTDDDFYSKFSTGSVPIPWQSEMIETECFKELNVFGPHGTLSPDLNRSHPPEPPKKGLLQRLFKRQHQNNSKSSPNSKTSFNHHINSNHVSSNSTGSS

increase in GRK5 potency [1]: 5 fold | metabolic stability in MLM, in words [3]: substantial metabolic instability | IC50 [4]: > 100000 nM
SMILES: O=C(NCc1ccccn1)c1cc([C@@H]2CCNC[C@H]2COc2ccc3c(c2)OCO3)ccc1F [14ak, 5-((3S,4R)-3-((benzo[d][1,3]dioxol-5-yloxy)methyl)piperidin-4-yl)-2-fluoro-N-(pyridin-2-ylmethyl)benzamide hydrochloride]
increase in contractility, in words [2]: did not show a significant increase in contractility

half-life in vivo ([6]; CD-1 mice, IP 10 mg/kg, estimated from four time points): too low to quantify | concentration at 30 min [6, 8]: 1830 nM | concentration at 2 h [6, 8]: 32 nM | concentration at 4 h [6, 8]: 5 nM | concentration at 7 h [6, 8]: 6 nM
SMILES: Cn1c(CNc2cccc(C(=O)NCc3ccccc3C(F)(F)F)c2)nnc1-c1ccncc1 [compound 2, reference compound]
IC50 [5]: 30 nM

SMILES: CC1=C(C(=O)Nc2ccc3[nH]ncc3c2)C(c2ccc(F)cc2)NC(=O)N1 (stereo not drawn) [compound 3]
minimum dose needed to produce a significant contractility response [7]: 1 µM

SMILES: COc1cccc(OC)c1CNC(=O)c1cc(C2NC(=O)NC(C)=C2C(=O)Nc2ccc3[nH]ncc3c2)ccc1F (stereo not drawn) [compound 4]
lower concentration than paroxetine enhancing myocardial contractility [7]: 20 fold
